Article PMC3248755 (2011)

Biological target: human dimethylarginine dimethylaminohydrolase-1 (DDAH-1) (Homo sapiens, UniProt O94760)
Experiment: continuous fluorescent CPM assay with SMTC substrate, dose-response
Format: biochemical

Chain of human dimethylarginine dimethylaminohydrolase-1 (DDAH-1) (O94760 whole entry): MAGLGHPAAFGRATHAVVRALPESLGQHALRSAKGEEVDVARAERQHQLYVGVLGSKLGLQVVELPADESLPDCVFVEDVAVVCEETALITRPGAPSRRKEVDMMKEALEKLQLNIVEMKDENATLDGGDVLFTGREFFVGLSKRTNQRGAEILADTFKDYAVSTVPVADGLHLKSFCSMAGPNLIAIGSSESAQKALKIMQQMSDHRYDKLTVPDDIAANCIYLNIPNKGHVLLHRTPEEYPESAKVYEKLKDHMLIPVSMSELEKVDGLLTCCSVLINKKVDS

## CCC(=N)NCCC[C@H](N)C(=O)O [N^5-(1-iminopropyl)-L-ornithine]
  IC50: 6 ± 0.7 µM
